In patent US9469615B2, “Quinoxalines and AZA-quinoxalines as CRTH2 receptor modulators” (Merck Sharp & Dohme Corp., priority 2010, dated 2016):
pKi: −log10 of the molar value.

Target: T1, hCRTH2 (Homo sapiens, UniProt Q9Y5Y4)
T1 construct: expressed in transfected cells; host or cells: HEK (human embryonic kidney) cells expressing hCRTH2; membrane preparation
T1 sequence (Q9Y5Y4 1-395): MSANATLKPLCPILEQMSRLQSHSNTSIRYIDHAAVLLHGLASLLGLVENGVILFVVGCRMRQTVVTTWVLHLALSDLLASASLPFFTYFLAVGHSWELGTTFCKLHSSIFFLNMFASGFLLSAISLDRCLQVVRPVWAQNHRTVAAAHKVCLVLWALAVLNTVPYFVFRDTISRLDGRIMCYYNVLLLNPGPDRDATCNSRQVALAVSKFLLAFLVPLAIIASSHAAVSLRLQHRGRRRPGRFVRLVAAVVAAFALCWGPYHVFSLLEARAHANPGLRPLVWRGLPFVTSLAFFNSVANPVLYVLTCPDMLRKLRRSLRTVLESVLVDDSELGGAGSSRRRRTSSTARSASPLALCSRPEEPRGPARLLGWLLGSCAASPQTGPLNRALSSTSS
Assay: Radioligand binding assay ([3H]PGD2 competition, HEK-hCRTH2 membranes)
Outline: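 Filter-bound radioactivity was counted by scintillation after 60 min incubations at room temperature. Membranes (8-20 μg) from HEK cells expressing hCRTH2 competed test ligands against 3.0 nM [3H]PGD2 in Tris-HCl pH 7.4 buffer with EDTA and 2 mM MnCl2; 10 μM PGD2 set non-specific binding.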

O=C(O)CCCCc1nc2cc(C(=O)N[C@@H]3CCOc4cc(F)ccc43)ccc2nc1-c1ccccc1 [compound 643, (R)-5-(7-((7-fluoro-chroman-4-yl)carbamoyl)-3-phenylquinoxalin-2-yl)pentanoic acid]
pKi ([3H]PGD2 competition, Table B): 8.70 to 10.00

C[C@@H](c1ccccc1)N(C)C(=O)c1ccc2nc(-c3ccc(Cl)cc3)c(CCCCC(=O)O)nc2c1 [compound 644, (S)-5-(3-(4-chloro-phenyl)-7-(methyl(1-phenylethyl)carbamoyl)quinoxalin-2-yl) pentanoic acid]
pKi ([3H]PGD2 competition, Table B): 7.70 to 8.68

O=C(O)CCCCc1nc2cc(C(=O)N3CCCCC3c3ccccc3)ccc2nc1-c1ccc(Cl)cc1 (centres unmarked) [compound 645, 5-(3-(4-chlorophenyl)-7-(2-phenylpiperidine-1-carbonyl)quinoxalin-2-yl)pentanoic acid]
pKi ([3H]PGD2 competition, Table B): 7.70 to 8.68

O=C(O)CCCCc1nc2cc(C(=O)N3CCCC3c3ccccc3)ccc2nc1-c1ccc(Cl)cc1 (centres unmarked) [compound 646, 5-(3-(4-chlorophenyl)-7-(2-phenylpyrrolidine-1-carbonyl)quinoxalin-2-yl)pentanoic acid]
pKi ([3H]PGD2 competition, Table B): 7.70 to 8.68

O=C(O)CCCCc1nc2cc(C(=O)N3CCCCC3c3ccccn3)ccc2nc1-c1ccc(Cl)cc1 (centres unmarked) [compound 647, 5-(3-(4-chlorophenyl)-7-(2-(pyridin-2-yl)piperidine-1-carbonyl)quinoxalin-2-yl)pentanoic acid]
pKi ([3H]PGD2 competition, Table B): 6.70 to 7.70

O=C(O)CCCCc1nc2cc(C(=O)N3CCC3c3ccccc3)ccc2nc1-c1ccc(Cl)cc1 (centres unmarked) [compound 648, 5-(3-(4-chlorophenyl)-7-(2-phenylazetidine-1-carbonyl)quinoxalin-2-yl)pentanoic acid]
pKi ([3H]PGD2 competition, Table B): 7.70 to 8.68

CC(c1ccoc1)N(C)C(=O)c1ccc2nc(-c3ccc(Cl)cc3)c(CCCCC(=O)O)nc2c1 (centres unmarked) [compound 649, 5-(3-(4-chlorophenyl)-7-((1-(furan-3-yl)ethyl)(methyl)carbamoyl)quinoxalin-2-yl) pentanoic acid]
pKi ([3H]PGD2 competition, Table B): 6.70 to 7.70

O=C(O)CCCCc1nc2cc(C(=O)N3CCCC3c3ccncc3)ccc2nc1-c1ccc(Cl)cc1 (centres unmarked) [compound 650, 5-(3-(4-chlorophenyl)-7-(2-(pyridin-4-yl)pyrrolidine-1-carbonyl)quinoxalin-2-yl)pentanoic acid]
pKi ([3H]PGD2 competition, Table B): 6.70 to 7.70

Cn1ccnc1C1CCCCN1C(=O)c1ccc2nc(-c3ccc(Cl)cc3)c(CCCCC(=O)O)nc2c1 (centres unmarked) [compound 651, 5-(3-(4-chlorophenyl)-7-(2-(1-methyl-1H-imidazol-2-yl)piperidine-1-carbonyl)quinoxalin-2-yl)pentanoic acid]
pKi ([3H]PGD2 competition, Table B): 6.70 to 7.70

Cc1nonc1C1CCCN1C(=O)c1ccc2nc(-c3ccc(Cl)cc3)c(CCCCC(=O)O)nc2c1 (centres unmarked) [compound 652, 5-(3-(4-chlorophenyl)-7-(2-(4-methyl-1,2,5-oxadiazol-3-yl)pyrrolidine-1-carbonyl)quinoxalin-2-yl)pentanoic acid]
pKi ([3H]PGD2 competition, Table B): 7.70 to 8.68

O=C(O)CCCCc1nc2cc(C(=O)N3CCCCCC3c3cccnc3)ccc2nc1-c1ccc(Cl)cc1 (centres unmarked) [compound 653, 5-(3-(4-chlorophenyl)-7-(2-(pyridin-3-yl)azepane-1-carbonyl)quinoxalin-2-yl)pentanoic acid]
pKi ([3H]PGD2 competition, Table B): 6.15 to 6.70

O=C(O)CCCCc1nc2cc(C(=O)N3CCCCC3c3nccs3)ccc2nc1-c1ccc(Cl)cc1 (centres unmarked) [compound 654, 5-(3-(4-chlorophenyl)-7-(2-(thiazol-2-yl)piperidine-1-carbonyl)quinoxalin-2-yl)pentanoic acid]
pKi ([3H]PGD2 competition, Table B): 6.70 to 7.70

Cc1csc(C(C)N(C)C(=O)c2ccc3nc(-c4ccc(Cl)cc4)c(CCCCC(=O)O)nc3c2)n1 (centres unmarked) [compound 655, 5-(3-(4-chlorophenyl)-7-(methyl(1-(4-methylthiazol-2-yl)ethyl)carbamoyl)quinoxalin-2-yl)pentanoic acid]
pKi ([3H]PGD2 competition, Table B): 7.70 to 8.68

O=C(O)CCCCc1nc2cc(C(=O)N3CCCC34CCc3cc(F)ccc34)ccc2nc1-c1ccc(Cl)cc1 (centres unmarked) [compound 656, 5-(3-(4-chlorophenyl)-7-(5-fluoro-2,3-dihydrospiro [indene-1,2′-pyrrolidin]-1′-ylcarbonyl)quinoxalin-2-yl)pentanoic acid]
pKi ([3H]PGD2 competition, Table B): 7.70 to 8.68

CC(c1ccon1)N(C)C(=O)c1ccc2nc(-c3ccc(Cl)cc3)c(CCCCC(=O)O)nc2c1 (centres unmarked) [compound 657, 5-(3-(4-chlorophenyl)-7-((1-(isoxazol-3-yl)ethyl)(methyl)carbamoyl)quinoxalin-2-yl) pentanoic acid]
pKi ([3H]PGD2 binding, values in text): 7.43 | pKi ([3H]PGD2 competition, Table B): 6.70 to 7.70

O=C(O)CCCCc1nc2cc(C(=O)N3CCCC34CCc3ccncc34)ccc2nc1-c1ccc(Cl)cc1 (centres unmarked) [compound 658, 5-(3-(4-chloro-phenyl)-7-(5,6-dihydrospiro [cyclopenta[c]pyridine-7,2′-pyrrolidin]-1′-ylcarbonyl)quinoxalin-2-yl)pentanoic acid]
pKi ([3H]PGD2 competition, Table B): 6.70 to 7.70

O=C(O)CCCCc1nc2cc(C(=O)N3CCCC3c3nccs3)ccc2nc1-c1ccc(Cl)cc1 (centres unmarked) [compound 659, 5-(3-(4-chlorophenyl)-7-(2-(thiazol-2-yl)pyrrolidine-1-carbonyl)quinoxalin-2-yl)pentanoic acid]
pKi ([3H]PGD2 competition, Table B): 6.70 to 7.70

Cc1noc(C2CCCCN2C(=O)c2ccc3nc(-c4ccc(Cl)cc4)c(CCCCC(=O)O)nc3c2)n1 (centres unmarked) [compound 660, 5-(3-(4-chlorophenyl)-7-(2-(3-methyl-1,2,4-oxadiazol-5-yl)piperidine-1-carbonyl)quinoxalin-2-yl)pentanoic acid]
pKi ([3H]PGD2 competition, Table B): 6.70 to 7.70

O=C(O)CCCCc1nc2cc(C(=O)N3CCOC[C@H]3c3ccccc3)ccc2nc1-c1ccc(Cl)cc1 [compound 661, (R)-5-(3-(4-chlorophenyl)-7-(3-phenylmorphohne-4-carbonyl)quinoxalin-2-yl)pentanoic acid]
pKi ([3H]PGD2 competition, Table B): 7.70 to 8.68

O=C(O)CCCCc1nc2cc(C(=O)N3CCCC3c3ccccn3)ccc2nc1-c1ccc(Cl)cc1 (centres unmarked) [compound 662, 5-(3-(4-chlorophenyl)-7-(2-(pyridin-2-yl)pyrrolidine-1-carbonyl)quinoxalin-2-yl)pentanoic acid]
pKi ([3H]PGD2 competition, Table B): 6.70 to 7.70

CC1Cc2ccccc2CCN1C(=O)c1ccc2nc(-c3ccc(Cl)cc3)c(CCCCC(=O)O)nc2c1 (centres unmarked) [compound 663, 5-(3-(4-chlorophenyl)-7-(2-methyl-2,3,4,5-tetrahydro-1H-benzo[d]azepine-3-carbonyl)quinoxalin-2-yl)pentanoic acid]
pKi ([3H]PGD2 competition, Table B): 7.70 to 8.68

Cc1ccc(CN2CCN(C(=O)c3ccc4nc(-c5ccc(Cl)cc5)c(CCCCC(=O)O)nc4c3)CC2)cc1 [compound 664, 5-(3-(4-chlorophenyl)-7-(4-(4-methylbenzyl)piperazine-1-carbonyl)quinoxalin-2-yl)pentanoic acid]
pKi ([3H]PGD2 competition, Table B): 7.70 to 8.68

Cc1ccc(N2CCN(C(=O)c3ccc4nc(-c5ccc(Cl)cc5)c(CCCCC(=O)O)nc4c3)CC2)cc1 [compound 665, 5-(3-(4-chlorophenyl)-7-(4-(p-tolyl)piperazine-1-carbonyl)quinoxalin-2-yl)pentanoic acid]
pKi ([3H]PGD2 competition, Table B): 7.70 to 8.68

CN1CCN(C(=O)c2ccc3nc(-c4ccc(Cl)cc4)c(CCCCC(=O)O)nc3c2)C(c2ccccc2)C1 (centres unmarked) [compound 666, 5-(3-(4-chlorophenyl)-7-(4-methyl-2-phenylpiperazine-1-carbonyl)quinoxalin-2-yl)pentanoic acid]
pKi ([3H]PGD2 competition, Table B): 7.70 to 8.68

O=C(O)CCCCc1nc2cc(C(=O)N3CCN(Cc4cccc(F)c4)CC3)ccc2nc1-c1ccc(Cl)cc1 [compound 667, 5-(3-(4-chlorophenyl)-7-(4-(3-fluorobenzyl)piperazine-1-carbonyl)quinoxalin-2-yl)pentanoic acid]
pKi ([3H]PGD2 competition, Table B): 7.70 to 8.68
